Laboratory results published in patent publication US5849782A, “Methods of inhibiting neurodegenerative diseases” (The General Hospital Corporation, priority 1996, dated 1998).

Experiments:
Male Swiss-Webster mice = experiment: 3-nitrotyrosine to tyrosine ratio in mouse striatum after MPTP; assay type: in vivo; details: MPTP 20 mg/kg x4; 7-NI 25 or 50 mg/kg
Procedure: Dopamine, 3,4-dihydroxyphenlyacetic acid (DOPAC), homovanillic acid (HVA), p-tyrosine, and 3-nitrotyrosine were quantified by HPLC with 16-electrode electrochemical detection (Beal et al. (1990) supra) and are expressed as ng/mg protein (mean±SEM) (FIG. 1). 3-Nitrotyrosine data are expressed as ratios of 3-nitrotyrosine to p-tyrosine to normalize for differing brain concentrations of tyrosine. The statistical significance of differences was determined via one-way ANOVA followed by Fisher PLSD post hoc test to compare group means. All animal use procedures were in strict accordance with the NIH Guide for the Care and Use of Laboratory Animals and were approved by the local Animal Care Committee.
Role of Peroxynitrite in MPTP. To determine whether peroxynitrite plays a role in MPTP neurotoxicity, we therefore measured the ratio of 3-nitrotyrosine to tyrosine in mouse striatum following administration of MPTP.

MAO-B = target: T1, MAO-B (Mus musculus, UniProt Q8BW75); experiment: MAO-B activity in vitro, mitochondrial fraction of mouse forebrain; assay type: biochemical; details: at 1, 10, and 100 μM
T1 construct: Crude mitochondrial preparations were obtain from the forebrains; from tissue; host or cells: mouse forebrain, crude mitochondrial fraction (P2 pellet on a discontinuous Ficoll gradient)
T1 sequence (Q8BW75 1-520): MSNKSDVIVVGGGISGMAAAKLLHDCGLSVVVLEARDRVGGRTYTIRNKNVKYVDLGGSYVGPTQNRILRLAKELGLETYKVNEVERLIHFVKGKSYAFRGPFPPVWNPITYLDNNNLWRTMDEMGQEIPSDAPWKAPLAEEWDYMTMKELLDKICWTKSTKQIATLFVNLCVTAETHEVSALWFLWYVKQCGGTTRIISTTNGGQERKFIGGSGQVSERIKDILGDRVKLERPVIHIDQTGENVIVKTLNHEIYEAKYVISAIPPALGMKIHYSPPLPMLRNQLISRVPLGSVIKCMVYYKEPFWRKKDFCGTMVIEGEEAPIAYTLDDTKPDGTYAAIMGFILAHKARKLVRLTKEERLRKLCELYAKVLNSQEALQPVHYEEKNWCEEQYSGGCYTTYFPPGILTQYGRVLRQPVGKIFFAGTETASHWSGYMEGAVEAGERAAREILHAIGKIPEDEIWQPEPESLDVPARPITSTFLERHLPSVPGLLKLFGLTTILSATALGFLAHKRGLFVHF

Male Sprague-Dawley rats = experiment: Striatal lesions produced by intrastriatal malonate (TTC staining); assay type: in vivo, rat; details: 7-NI 25 and 50 mg/kg i.p. 0.5 h before malonate
Procedure: Stereotaxic Lesion Technique. Male Sprague-Dawley rats (Charles River, Cambridge, Mass.) weighing 300-325 g were anesthetized with pentobarbital (50 mg/kg i.p.) and positioned in a David Kopf stereotaxic instrument with the incisor bar set at 3.3 mm below the intermural line. Malonate, NMDA, KA, and AMPA were dissolved in 0.1M phosphate-buffered saline (pH, 7.4). Intrastriatal injections were made with a 10 μl Hamilton syringe fitted with a 30 gauge blunt-tipped needle into the left striatum at the coordinates 0.5 mm anterior bregma, 2.6 mm lateral to the midline and 5 mm ventral to the dura. Injection volumes were 1 μl (3 μmol malonate). […]
Quantification of Lesion Volume. […] (Bederson et al. (1986) Stroke 17:1304-1308.) The lesioned area (noted by pale staining) was measured on the posterior surface of each section using an Apple Macintosh.COPYRGT. based image analysis system (Sony color video camera, Software: ColorSnap.COPYRGT. (Computer Friends Inc., Portland, Oreg.) and IPLab Spectrum.COPYRGT. (Signal Analytics, Vienna, Va.)). The lesions were evaluated by an experienced histologist, who verified the reliability of the TTC measurements in animals injected with malonate on adjacent sections stained with either TTC or Nissl stain (Schulz et al. (1995) J. Neurochem 64:in press).

rats = experiment: Striatal ATP after intrastriatal malonate (luciferin-luciferase); assay type: in vivo, rat; details: 7-NI 50 mg/kg; 3 μmol malonate; measured 1.5 h after injection
Procedure: ATP Measurements. The effects of 7-NI on malonate-induced decreases in striatal ATP concentrations were examined. 50 mg/kg of 7-NI dissolved in peanut oil or peanut oil vehicle were administered i.p. 0.5 h before intrastriatal injection of 3 μmol malonate. […] After decapitation the heads were rapidly frozen in liquid nitrogen and subsequently stored at -70° C. The striata were dissected from a 2 mm slice frontal and adjacent to the anterior commissure on a freezing cold plate. The corpus callosum, the septal complex, and the anterior commissure were used as dorsal and lateral, medial, and ventral boundaries. ATP was measured by the luciferin-luciferase assay (Lust et al. (1981) Anal. Biochem. 110-258-266). Proteins were measured on the pellets using a fluorimetric assay. Eight animals per group were examined.

[1] = Babbedge et al. 1993; Moore et al. 1993; cited from earlier work
[2] = Yoshida et al. 1994; cited from earlier work

O=[N+]([O-])c1cccc2cn[nH]c12 [7-NI, 7-nitroindazole]
MPTP-induced increase of 3-nitrotyrosine to tyrosine ratio in striatum (Male Swiss-Webster mice): significantly attenuated | inhibition of MAO-B activity in vitro (MAO-B): did not inhibit | striatal lesion produced by 3 μmol malonate (Male Sprague-Dawley rats): significantly and dose dependently attenuated | malonate-induced decreases of striatal ATP concentrations (rats): significantly attenuated | effect on blood pressure in vivo [1]: no effect | efficacy against focal ischemic lesions in vivo [2]: efficacious
